Source: patent EP3689885B1, “HIGHLY EFFECTIVE CONCENTRATES WITH PPDA AND THEIR USE IN STABILIZING MATERIALS IN ANIMAL EXCREMENTS” (SKW STICKSTOFFWERKE PIESTERITZ GmbH, priority 2019, dated 2020)
“Also recorded” adds a separate entry of the source.

Legend:
Urease = conditions: literature (Wenzel et al. 1983; Leinker 2007, laboratory screening); cited from earlier work
[1] = Maximum solubility of PPDA in solvents / solvent mixtures; format: physicochemical
From the text: (§1) PPDA wurde bis zur maximalen Löslichkeit in die Lösungsmittel/ Lösungsmittelgemische eingebracht, die Lösungen wurden bei Raumtemperatur gelagert und der Wirkstoffgehalt (PPDA) nach 48 Wochen mittels HPLC überprüft.

[2] = Stability of the active ingredient (PPDA) in the solution, HPLC; format: physicochemical; conditions: room temperature, 483840 min
From the text: as §1

In the case of `NP(N)(=O)Oc1ccccc1` [PPDA, Phenylphosphorsäurediamid], the “Wirksamkeit als Urease-Inhibitor” value (Urease) is given as “mittlerer Wirkungsstärke; also recorded: nur mittlere Wirksamkeit”, the Löslichkeit ([1]; DMSO/Diethylenglycolmonomethylether, Anteil LM 1 20 %, room temperature) is given as 3,0% and the Löslichkeit ([1]; DMSO/Diethylenglycolmonomethylether, Anteil LM 1 40 %, room temperature) is given as 4,4%. The Löslichkeit ([1]; DMSO/Diethylenglycolmonomethylether, Anteil LM 1 60 %, room temperature) was 7,8%, the Löslichkeit ([1]; DMSO/Diethylenglycolmonomethylether, Anteil LM 1 80 %, room temperature) was 11,5% and the Löslichkeit ([1]; DMSO/Glycerinformal, Anteil LM 1 20 %, room temperature) was 4,1%. The Löslichkeit ([1]; DMSO/Glycerinformal, Anteil LM 1 40 %, room temperature) was 4,9%, the Löslichkeit ([1]; DMSO/Glycerinformal, Anteil LM 1 60 %, room temperature) was 6,7% and the Löslichkeit ([1]; DMSO/Glycerinformal, Anteil LM 1 80 %, room temperature) was 10,3%. The Löslichkeit ([1]; DMSO/Propylenglycolmonomethyl ether, Anteil LM 1 20 %, room temperature) was 2,2%, the Löslichkeit ([1]; DMSO/Propylenglycolmonomethyl ether, Anteil LM 1 40 %, room temperature) was 3,5% and the Löslichkeit ([1]; DMSO/Propylenglycolmonomethyl ether, Anteil LM 1 60 %, room temperature) was 6,2%. For the same compound, the Löslichkeit ([1]; DMSO/Propylenglycolmonomethyl ether, Anteil LM 1 80 %, room temperature) was 10,7%, the Löslichkeit ([1]; DMSO/Pyrrolidon, Anteil LM 1 20 %, room temperature) was 6,0% and the Löslichkeit ([1]; DMSO/Pyrrolidon, Anteil LM 1 40 %, room temperature) was 8,4%. The Löslichkeit ([1]; DMSO/Pyrrolidon, Anteil LM 1 60 %, room temperature) was 9,9%, the Löslichkeit ([1]; DMSO/Pyrrolidon, Anteil LM 1 80 %, room temperature) was 12,0% and the Löslichkeit ([1]; DMSO, room temperature) was 11,5%. The Löslichkeit ([1]; Diethylenenglycolmonomethylether / Glycerinformal, Anteil LM 1 20 %, room temperature) was 3,9%, the Löslichkeit ([1]; Diethylenenglycolmonomethylether / Glycerinformal, Anteil LM 1 40 %, room temperature) was 3,3% and the Löslichkeit ([1]; Diethylenenglycolmonomethylether / Glycerinformal, Anteil LM 1 60 %, room temperature) was 3,1%. For the same compound, the Löslichkeit ([1]; Diethylenenglycolmonomethylether / Glycerinformal, Anteil LM 1 80 %, room temperature) was 2,6%, the Löslichkeit ([1]; Propylenglycol monomethylether / Glycerinformal, Anteil LM 1 20 %, room temperature) was 2,8% and the Löslichkeit ([1]; Propylenglycol monomethylether / Glycerinformal, Anteil LM 1 40 %, room temperature) was 2,7%. For the same compound, the Löslichkeit ([1]; Propylenglycol monomethylether / Glycerinformal, Anteil LM 1 60 %, room temperature) was 2,2%, the Löslichkeit ([1]; Propylenglycol monomethylether / Glycerinformal, Anteil LM 1 80 %, room temperature) was 1,5% and the Löslichkeit ([1]; Propylenglycol monomethylether / Pyrrolidon, Anteil LM 1 40 %, room temperature) was 3,7%. The Löslichkeit ([1]; Propylenglycol monomethylether / Pyrrolidon, Anteil LM 1 60 %, room temperature) was 2,9%, the Löslichkeit ([1]; Propylenglycol monomethylether / Pyrrolidon, Anteil LM 1 80 %, room temperature) was 1,1% and the Löslichkeit ([1]; Pyrrolidon / Glycerinformal, Anteil LM 1 20 %, room temperature) was 4,3%. The Löslichkeit ([1]; Tetraethylenglycol / Pyrrolidon, Anteil LM 1 40 %, room temperature) was 5,5%, the Löslichkeit ([1]; Tetraethylenglycol / Pyrrolidon, Anteil LM 1 60 %, room temperature) was 3,6% and the Löslichkeit ([1]; in most solvents generally known as good solvents for phosphoric acid amides (not named)) was under 1%. For the same compound, the “Wirkstoffwiederfindung nach 48 Wochen” value ([2]; saturated solution in DMSO) was 81%, the “Wirkstoffwiederfindung nach 48 Wochen” value ([2]; saturated solution in DMSO/Diethylenglycolmonomethylether, Anteil LM 1 20 %) was 83% and the “Wirkstoffwiederfindung nach 48 Wochen” value ([2]; saturated solution in DMSO/Diethylenglycolmonomethylether, Anteil LM 1 40 %) was 85%. For the same compound, the “Wirkstoffwiederfindung nach 48 Wochen” value ([2]; saturated solution in DMSO/Diethylenglycolmonomethylether, Anteil LM 1 60 %) was 93%, the “Wirkstoffwiederfindung nach 48 Wochen” value ([2]; saturated solution in DMSO/Diethylenglycolmonomethylether, Anteil LM 1 80 %) was 80% and the “Wirkstoffwiederfindung nach 48 Wochen” value ([2]; saturated solution in DMSO/Glycerinformal, Anteil LM 1 20 %) was 82%. For the same compound, the “Wirkstoffwiederfindung nach 48 Wochen” value ([2]; saturated solution in DMSO/Glycerinformal, Anteil LM 1 40 %) was 91%, the “Wirkstoffwiederfindung nach 48 Wochen” value ([2]; saturated solution in DMSO/Glycerinformal, Anteil LM 1 60 %) was 92% and the “Wirkstoffwiederfindung nach 48 Wochen” value ([2]; saturated solution in DMSO/Glycerinformal, Anteil LM 1 80 %) was 86%. The “Wirkstoffwiederfindung nach 48 Wochen” value ([2]; saturated solution in DMSO/Propylenglycolmonomethyl ether, Anteil LM 1 20 %) was 100%, the “Wirkstoffwiederfindung nach 48 Wochen” value ([2]; saturated solution in DMSO/Propylenglycolmonomethyl ether, Anteil LM 1 40 %) was 100% and the “Wirkstoffwiederfindung nach 48 Wochen” value ([2]; saturated solution in DMSO/Propylenglycolmonomethyl ether, Anteil LM 1 60 %) was 95%. The “Wirkstoffwiederfindung nach 48 Wochen” value ([2]; saturated solution in DMSO/Propylenglycolmonomethyl ether, Anteil LM 1 80 %) was 89%, the “Wirkstoffwiederfindung nach 48 Wochen” value ([2]; saturated solution in DMSO/Pyrrolidon, Anteil LM 1 20 %) was 79% and the “Wirkstoffwiederfindung nach 48 Wochen” value ([2]; saturated solution in DMSO/Pyrrolidon, Anteil LM 1 40 %) was 88%. The “Wirkstoffwiederfindung nach 48 Wochen” value ([2]; saturated solution in DMSO/Pyrrolidon, Anteil LM 1 60 %) was 93%, the “Wirkstoffwiederfindung nach 48 Wochen” value ([2]; saturated solution in DMSO/Pyrrolidon, Anteil LM 1 80 %) was 92% and the “Wirkstoffwiederfindung nach 48 Wochen” value ([2]; saturated solution in Diethylenenglycolmonomethylether / Glycerinformal, Anteil LM 1 20 %) was 85%. For the same compound, the “Wirkstoffwiederfindung nach 48 Wochen” value ([2]; saturated solution in Diethylenenglycolmonomethylether / Glycerinformal, Anteil LM 1 40 %) was 89%, the “Wirkstoffwiederfindung nach 48 Wochen” value ([2]; saturated solution in Diethylenenglycolmonomethylether / Glycerinformal, Anteil LM 1 60 %) was 72% and the “Wirkstoffwiederfindung nach 48 Wochen” value ([2]; saturated solution in Diethylenenglycolmonomethylether / Glycerinformal, Anteil LM 1 80 %) was 73%. The “Wirkstoffwiederfindung nach 48 Wochen” value ([2]; saturated solution in Propylenglycol monomethylether / Glycerinformal, Anteil LM 1 20 %) was 93%, the “Wirkstoffwiederfindung nach 48 Wochen” value ([2]; saturated solution in Propylenglycol monomethylether / Glycerinformal, Anteil LM 1 40 %) was 100% and the “Wirkstoffwiederfindung nach 48 Wochen” value ([2]; saturated solution in Propylenglycol monomethylether / Glycerinformal, Anteil LM 1 60 %) was 100%. The “Wirkstoffwiederfindung nach 48 Wochen” value ([2]; saturated solution in Propylenglycol monomethylether / Glycerinformal, Anteil LM 1 80 %) was 100%, the “Wirkstoffwiederfindung nach 48 Wochen” value ([2]; saturated solution in Propylenglycol monomethylether / Pyrrolidon, Anteil LM 1 40 %) was 100% and the “Wirkstoffwiederfindung nach 48 Wochen” value ([2]; saturated solution in Propylenglycol monomethylether / Pyrrolidon, Anteil LM 1 60 %) was 100%. The “Wirkstoffwiederfindung nach 48 Wochen” value ([2]; saturated solution in Propylenglycol monomethylether / Pyrrolidon, Anteil LM 1 80 %) was 100%, the “Wirkstoffwiederfindung nach 48 Wochen” value ([2]; saturated solution in Pyrrolidon / Glycerinformal, Anteil LM 1 20 %) was 72% and the “Wirkstoffwiederfindung nach 48 Wochen” value ([2]; saturated solution in Tetraethylenglycol / Pyrrolidon, Anteil LM 1 40 %) was 87%. For the same compound, the “Wirkstoffwiederfindung nach 48 Wochen” value ([2]; saturated solution in Tetraethylenglycol / Pyrrolidon, Anteil LM 1 60 %) was 76%.
